Laboratory results published in ChEMBL document CHEMBL1201862, “PubChem BioAssay data set” (2004).
Calls of active or inactive are those of the source.

Key:
Assay type in all cases: functional
[1] = biological target: Ribosomal protein S6 kinase alpha-3 (Homo sapiens, UniProt P51812);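 also: measured within a kinome-wide profiling panel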
[2] = biological target: Death-associated protein kinase 3 (Homo sapiens, UniProt O43293);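 also: measured as one member of a kinome-wide profiling panel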
[3] = biological target: Mitogen-activated protein kinase 8 (Homo sapiens, UniProt P45983);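 also: value comes from one member of a kinome-wide kinase profiling panel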
[4] = biological target: Tyrosine-protein kinase BTK (Homo sapiens, UniProt Q06187)
[5] = biological target: Mitogen-activated protein kinase 9 (Homo sapiens, UniProt P45984);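 also: value from a kinome panel profiling assay, MAPK9 panel entry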
LIM domain kinase 1 = LIM domain kinase 1 (Homo sapiens, UniProt P53667); test: Navigating the Kinome. Panel member name: LIMK1
[6] = biological target: T1, Serine/threonine-protein kinase TAO1 (Homo sapiens, UniProt Q7L7X3)
T1 sequence (Q7L7X3 whole entry): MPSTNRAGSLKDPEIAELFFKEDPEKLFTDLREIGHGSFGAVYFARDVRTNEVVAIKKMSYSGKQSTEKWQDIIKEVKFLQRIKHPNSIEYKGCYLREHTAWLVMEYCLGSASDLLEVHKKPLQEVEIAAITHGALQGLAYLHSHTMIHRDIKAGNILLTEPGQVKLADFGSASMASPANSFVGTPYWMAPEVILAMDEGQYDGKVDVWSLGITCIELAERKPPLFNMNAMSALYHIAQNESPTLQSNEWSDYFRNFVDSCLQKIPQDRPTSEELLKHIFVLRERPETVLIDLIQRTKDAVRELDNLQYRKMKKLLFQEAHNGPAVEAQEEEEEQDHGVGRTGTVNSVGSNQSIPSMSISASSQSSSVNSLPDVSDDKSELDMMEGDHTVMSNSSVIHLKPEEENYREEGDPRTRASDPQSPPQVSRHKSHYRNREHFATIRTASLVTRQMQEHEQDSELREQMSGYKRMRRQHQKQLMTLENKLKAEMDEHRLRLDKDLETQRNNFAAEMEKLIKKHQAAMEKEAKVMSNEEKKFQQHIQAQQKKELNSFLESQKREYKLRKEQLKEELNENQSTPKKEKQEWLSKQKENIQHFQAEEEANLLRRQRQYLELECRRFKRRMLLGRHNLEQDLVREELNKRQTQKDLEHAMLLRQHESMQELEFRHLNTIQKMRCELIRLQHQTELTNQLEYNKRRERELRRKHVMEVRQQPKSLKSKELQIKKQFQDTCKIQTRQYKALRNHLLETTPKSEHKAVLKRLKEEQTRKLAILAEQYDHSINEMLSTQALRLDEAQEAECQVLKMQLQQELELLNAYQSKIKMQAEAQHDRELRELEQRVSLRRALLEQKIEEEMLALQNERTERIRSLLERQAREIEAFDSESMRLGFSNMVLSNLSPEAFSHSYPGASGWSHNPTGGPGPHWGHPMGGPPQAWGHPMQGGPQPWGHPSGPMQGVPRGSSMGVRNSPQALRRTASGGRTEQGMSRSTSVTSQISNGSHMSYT

[7] = biological target: High affinity nerve growth factor receptor (Homo sapiens, UniProt P04629);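 also: NTRK1 tested as one member of a kinome-wide profiling panel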
[8] = biological target: Hepatocyte growth factor receptor (Homo sapiens, UniProt P08581);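 also: kinase panel profiling across the kinome, with MET as the panel member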
[9] = biological target: T2, Receptor-type tyrosine-protein kinase FLT3 (Homo sapiens, UniProt P36888);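 also: FLT3 was tested as one member of a kinome-wide kinase panel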
T2 sequence (P36888 whole entry): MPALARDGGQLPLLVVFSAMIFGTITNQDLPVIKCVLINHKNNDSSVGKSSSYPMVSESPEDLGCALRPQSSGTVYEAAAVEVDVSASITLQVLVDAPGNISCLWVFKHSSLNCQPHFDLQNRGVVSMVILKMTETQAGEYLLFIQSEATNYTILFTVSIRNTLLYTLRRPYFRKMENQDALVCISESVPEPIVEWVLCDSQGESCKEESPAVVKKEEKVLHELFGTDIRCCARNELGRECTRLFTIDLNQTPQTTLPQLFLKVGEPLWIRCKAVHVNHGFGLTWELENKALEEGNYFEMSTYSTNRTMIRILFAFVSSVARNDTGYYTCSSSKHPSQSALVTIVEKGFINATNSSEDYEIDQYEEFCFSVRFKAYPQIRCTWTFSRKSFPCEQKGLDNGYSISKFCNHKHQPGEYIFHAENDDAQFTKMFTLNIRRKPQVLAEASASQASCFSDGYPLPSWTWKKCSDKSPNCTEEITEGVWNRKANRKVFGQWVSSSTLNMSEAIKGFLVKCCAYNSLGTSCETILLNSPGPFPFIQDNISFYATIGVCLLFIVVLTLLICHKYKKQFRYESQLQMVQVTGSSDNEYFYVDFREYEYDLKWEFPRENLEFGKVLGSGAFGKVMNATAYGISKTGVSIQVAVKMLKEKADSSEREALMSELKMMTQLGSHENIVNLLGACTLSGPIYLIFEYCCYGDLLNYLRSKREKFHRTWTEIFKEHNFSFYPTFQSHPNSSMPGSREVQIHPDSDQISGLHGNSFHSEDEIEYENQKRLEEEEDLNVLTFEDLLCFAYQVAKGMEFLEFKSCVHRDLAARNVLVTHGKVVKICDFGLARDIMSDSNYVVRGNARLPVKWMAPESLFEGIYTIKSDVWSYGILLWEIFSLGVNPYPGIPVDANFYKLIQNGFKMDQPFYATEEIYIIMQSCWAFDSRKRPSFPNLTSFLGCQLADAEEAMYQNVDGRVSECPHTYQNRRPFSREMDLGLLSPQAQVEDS

[10] = biological target: Dual specificity tyrosine-phosphorylation-regulated kinase 1B (Homo sapiens, UniProt Q9Y463); test: Navigating the Kinome. Panel member name: DYRK1B
Focal adhesion kinase 1 = Focal adhesion kinase 1 (Homo sapiens, UniProt Q05397);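 also: measured as one member of a kinome panel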
[11] = biological target: Platelet-derived growth factor receptor alpha (Homo sapiens, UniProt P16234); test: Navigating the Kinome. Panel member name: PDGFRA
[12] = biological target: Leucine-rich repeat serine/threonine-protein kinase 2 (Homo sapiens, UniProt Q5S007);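 also: value from a broad kinome-wide panel profiling study in which LRRK2 was one of the kinases tested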
Aurora kinase B = Aurora kinase B (Homo sapiens, UniProt Q96GD4)
[13] = biological target: Tyrosine-protein kinase Fyn (Homo sapiens, UniProt P06241)
[14] = biological target: Dual specificity mitogen-activated protein kinase kinase 2 (Homo sapiens, UniProt P36507); test: Navigating the Kinome. Panel member name: MAP2K2
[15] = biological target: Calcium/calmodulin-dependent protein kinase type II subunit alpha (Homo sapiens, UniProt Q9UQM7); test: Navigating the Kinome. Panel member name: CAMK2A
[16] = biological target: Leukocyte tyrosine kinase receptor (Homo sapiens, UniProt P29376); test: Navigating the Kinome. Panel member name: LTK

Chain of Platelet-derived growth factor receptor alpha (P16234 whole entry): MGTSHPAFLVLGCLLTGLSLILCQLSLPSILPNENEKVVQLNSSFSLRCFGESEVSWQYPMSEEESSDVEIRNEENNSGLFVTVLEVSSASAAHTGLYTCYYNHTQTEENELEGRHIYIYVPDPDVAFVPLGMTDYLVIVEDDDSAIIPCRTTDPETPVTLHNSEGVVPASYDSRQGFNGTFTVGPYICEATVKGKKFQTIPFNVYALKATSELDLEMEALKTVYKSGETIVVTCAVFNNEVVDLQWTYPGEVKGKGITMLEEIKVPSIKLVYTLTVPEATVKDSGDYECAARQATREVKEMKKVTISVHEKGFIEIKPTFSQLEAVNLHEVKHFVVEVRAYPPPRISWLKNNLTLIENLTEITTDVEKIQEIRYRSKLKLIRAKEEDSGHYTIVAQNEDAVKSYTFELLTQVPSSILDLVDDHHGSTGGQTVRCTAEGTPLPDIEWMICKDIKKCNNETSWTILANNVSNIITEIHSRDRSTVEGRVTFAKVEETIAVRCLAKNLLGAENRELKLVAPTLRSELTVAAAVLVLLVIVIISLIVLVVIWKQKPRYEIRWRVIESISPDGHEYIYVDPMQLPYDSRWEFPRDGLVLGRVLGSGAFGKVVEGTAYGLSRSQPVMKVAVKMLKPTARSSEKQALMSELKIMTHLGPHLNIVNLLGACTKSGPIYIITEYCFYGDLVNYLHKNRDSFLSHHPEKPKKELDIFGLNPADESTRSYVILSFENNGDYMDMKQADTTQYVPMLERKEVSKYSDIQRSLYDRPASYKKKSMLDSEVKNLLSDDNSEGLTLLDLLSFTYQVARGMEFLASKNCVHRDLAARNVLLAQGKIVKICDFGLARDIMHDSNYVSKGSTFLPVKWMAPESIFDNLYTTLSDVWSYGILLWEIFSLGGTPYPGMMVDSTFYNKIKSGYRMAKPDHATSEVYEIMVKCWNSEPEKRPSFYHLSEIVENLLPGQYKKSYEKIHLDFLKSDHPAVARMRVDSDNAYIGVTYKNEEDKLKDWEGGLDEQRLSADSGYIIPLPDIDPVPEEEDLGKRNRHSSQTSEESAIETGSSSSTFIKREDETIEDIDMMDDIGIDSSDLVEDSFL
Chain of Aurora kinase B (Q96GD4 whole entry): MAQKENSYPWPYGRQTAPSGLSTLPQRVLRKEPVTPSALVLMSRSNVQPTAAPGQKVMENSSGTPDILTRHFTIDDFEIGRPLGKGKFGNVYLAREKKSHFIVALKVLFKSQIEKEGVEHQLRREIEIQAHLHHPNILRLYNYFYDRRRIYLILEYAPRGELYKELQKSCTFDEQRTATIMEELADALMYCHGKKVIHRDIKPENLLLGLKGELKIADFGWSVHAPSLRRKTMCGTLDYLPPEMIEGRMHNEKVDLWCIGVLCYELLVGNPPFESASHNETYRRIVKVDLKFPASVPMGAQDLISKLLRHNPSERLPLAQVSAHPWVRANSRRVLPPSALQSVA
Chain of Ribosomal protein S6 kinase alpha-3 (P51812 whole entry): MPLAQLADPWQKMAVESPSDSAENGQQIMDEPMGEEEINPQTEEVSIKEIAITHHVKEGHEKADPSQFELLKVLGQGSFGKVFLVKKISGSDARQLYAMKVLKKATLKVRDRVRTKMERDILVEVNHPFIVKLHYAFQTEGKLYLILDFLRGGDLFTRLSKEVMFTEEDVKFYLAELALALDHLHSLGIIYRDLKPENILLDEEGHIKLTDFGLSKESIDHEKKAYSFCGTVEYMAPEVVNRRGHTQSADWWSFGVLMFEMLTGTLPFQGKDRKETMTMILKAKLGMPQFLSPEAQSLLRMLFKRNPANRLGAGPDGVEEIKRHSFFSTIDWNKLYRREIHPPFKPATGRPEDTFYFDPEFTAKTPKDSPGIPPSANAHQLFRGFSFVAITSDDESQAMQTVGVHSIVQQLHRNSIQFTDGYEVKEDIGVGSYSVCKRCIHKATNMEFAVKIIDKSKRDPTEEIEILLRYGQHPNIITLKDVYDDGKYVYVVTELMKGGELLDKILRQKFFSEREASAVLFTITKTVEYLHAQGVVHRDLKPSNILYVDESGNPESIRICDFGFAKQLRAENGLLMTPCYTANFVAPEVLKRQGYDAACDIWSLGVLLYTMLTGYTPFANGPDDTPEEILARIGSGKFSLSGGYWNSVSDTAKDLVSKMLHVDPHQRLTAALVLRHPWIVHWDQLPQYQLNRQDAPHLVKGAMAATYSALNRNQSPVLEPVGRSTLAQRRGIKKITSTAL
Chain of Leucine-rich repeat serine/threonine-protein kinase 2 (Q5S007 whole entry): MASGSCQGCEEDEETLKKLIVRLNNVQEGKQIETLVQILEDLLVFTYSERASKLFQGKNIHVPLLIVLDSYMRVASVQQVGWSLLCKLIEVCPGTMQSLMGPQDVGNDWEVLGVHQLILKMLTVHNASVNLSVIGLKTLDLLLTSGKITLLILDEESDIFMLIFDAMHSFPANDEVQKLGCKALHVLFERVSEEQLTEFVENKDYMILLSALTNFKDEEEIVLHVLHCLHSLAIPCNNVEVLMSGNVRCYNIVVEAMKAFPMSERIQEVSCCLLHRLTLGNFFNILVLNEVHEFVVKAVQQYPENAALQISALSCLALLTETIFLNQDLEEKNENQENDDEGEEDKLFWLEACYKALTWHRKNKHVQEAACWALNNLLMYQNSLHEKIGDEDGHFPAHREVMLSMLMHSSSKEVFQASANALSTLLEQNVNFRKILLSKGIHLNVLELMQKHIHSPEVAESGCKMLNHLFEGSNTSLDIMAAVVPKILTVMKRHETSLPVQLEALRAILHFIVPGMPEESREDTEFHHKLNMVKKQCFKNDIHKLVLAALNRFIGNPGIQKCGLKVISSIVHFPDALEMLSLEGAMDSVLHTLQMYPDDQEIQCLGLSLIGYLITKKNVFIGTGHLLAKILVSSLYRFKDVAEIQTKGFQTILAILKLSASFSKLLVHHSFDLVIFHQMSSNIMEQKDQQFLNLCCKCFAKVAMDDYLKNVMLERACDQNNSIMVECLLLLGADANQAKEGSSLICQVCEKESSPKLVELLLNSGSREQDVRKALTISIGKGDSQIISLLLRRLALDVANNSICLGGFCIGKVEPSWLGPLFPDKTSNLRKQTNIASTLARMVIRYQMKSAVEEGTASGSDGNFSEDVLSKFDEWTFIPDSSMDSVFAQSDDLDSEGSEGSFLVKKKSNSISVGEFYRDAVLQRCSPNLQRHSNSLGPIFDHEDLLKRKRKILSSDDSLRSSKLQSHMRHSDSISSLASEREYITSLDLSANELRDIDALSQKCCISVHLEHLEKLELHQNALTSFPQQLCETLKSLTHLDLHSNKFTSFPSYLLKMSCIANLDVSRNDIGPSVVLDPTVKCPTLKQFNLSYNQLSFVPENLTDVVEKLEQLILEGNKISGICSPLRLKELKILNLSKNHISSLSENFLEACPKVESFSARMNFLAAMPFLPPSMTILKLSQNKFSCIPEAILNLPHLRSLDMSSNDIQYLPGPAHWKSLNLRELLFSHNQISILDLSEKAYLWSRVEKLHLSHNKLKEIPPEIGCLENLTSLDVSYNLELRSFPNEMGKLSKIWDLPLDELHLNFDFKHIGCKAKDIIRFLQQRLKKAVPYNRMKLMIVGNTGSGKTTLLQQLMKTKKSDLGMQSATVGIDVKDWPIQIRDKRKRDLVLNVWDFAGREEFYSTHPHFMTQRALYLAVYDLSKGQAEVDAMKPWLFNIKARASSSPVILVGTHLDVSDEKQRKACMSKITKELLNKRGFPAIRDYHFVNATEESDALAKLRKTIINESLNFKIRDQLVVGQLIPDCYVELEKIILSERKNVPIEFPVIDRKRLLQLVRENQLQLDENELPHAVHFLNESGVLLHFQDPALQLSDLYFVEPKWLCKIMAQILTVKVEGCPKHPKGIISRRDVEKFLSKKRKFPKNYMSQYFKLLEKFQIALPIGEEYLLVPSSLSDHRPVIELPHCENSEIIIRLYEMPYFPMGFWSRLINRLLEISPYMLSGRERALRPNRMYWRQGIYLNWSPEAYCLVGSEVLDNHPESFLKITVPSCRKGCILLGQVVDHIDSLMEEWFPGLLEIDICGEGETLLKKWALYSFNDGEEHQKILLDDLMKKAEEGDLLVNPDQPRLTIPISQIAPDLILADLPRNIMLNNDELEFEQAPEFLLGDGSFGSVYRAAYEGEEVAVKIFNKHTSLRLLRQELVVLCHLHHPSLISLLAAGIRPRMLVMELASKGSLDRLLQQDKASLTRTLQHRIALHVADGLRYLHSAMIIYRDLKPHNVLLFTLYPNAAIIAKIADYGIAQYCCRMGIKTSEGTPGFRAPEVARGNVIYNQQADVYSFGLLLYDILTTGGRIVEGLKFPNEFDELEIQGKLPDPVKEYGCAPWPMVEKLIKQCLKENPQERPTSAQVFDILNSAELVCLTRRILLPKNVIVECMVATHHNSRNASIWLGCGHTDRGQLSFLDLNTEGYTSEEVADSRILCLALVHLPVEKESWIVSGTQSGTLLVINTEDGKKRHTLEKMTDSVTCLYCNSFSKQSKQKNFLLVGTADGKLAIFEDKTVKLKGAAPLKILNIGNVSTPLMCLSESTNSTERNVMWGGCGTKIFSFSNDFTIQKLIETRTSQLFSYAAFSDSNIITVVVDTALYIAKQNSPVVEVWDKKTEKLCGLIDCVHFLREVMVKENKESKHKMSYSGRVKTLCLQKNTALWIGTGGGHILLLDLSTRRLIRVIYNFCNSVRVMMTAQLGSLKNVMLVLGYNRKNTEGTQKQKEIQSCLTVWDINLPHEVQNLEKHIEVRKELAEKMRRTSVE
Chain of Mitogen-activated protein kinase 8 (P45983 whole entry): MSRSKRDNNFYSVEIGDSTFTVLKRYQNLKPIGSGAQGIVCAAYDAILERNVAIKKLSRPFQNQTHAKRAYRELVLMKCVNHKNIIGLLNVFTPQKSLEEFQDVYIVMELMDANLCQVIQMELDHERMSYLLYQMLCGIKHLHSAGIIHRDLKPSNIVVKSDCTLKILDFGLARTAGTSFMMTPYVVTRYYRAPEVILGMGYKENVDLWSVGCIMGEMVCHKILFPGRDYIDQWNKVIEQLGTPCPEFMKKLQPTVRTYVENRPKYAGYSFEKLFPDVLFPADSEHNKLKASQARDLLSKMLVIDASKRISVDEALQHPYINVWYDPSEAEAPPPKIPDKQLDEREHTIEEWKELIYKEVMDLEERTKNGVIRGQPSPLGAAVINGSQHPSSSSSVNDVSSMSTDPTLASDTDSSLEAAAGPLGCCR

Row | Structure (SMILES) | Ki [1] | Ki [2] | Ki [3] | Ki [4] | Ki [5] | Ki (LIM domain kinase 1) | Ki [6] | Ki [7] | Ki [8] | Ki [9] | Ki [10] | Ki (Focal adhesion kinase 1) | Ki [11] | Ki [12] | Ki (Aurora kinase B) | Ki [13] | Ki [14] | Ki [15] | Ki [16]
1 | Cc1ccc(C)c(NC(=O)c2cc(-c3ccco3)nc3ccccc23)c1 | 3.16 µM (active) | 5.01 µM (active) | > 5.01 µM (inactive) | 3.98 µM (active) | > 3.98 µM (inactive) | 0.316 µM (active) | 3.98 µM (active) | 1 µM (active) | 0.631 µM (active) | > 3.16 µM (inactive) | 1 µM (active) | 3.16 µM (active) | 2 µM (active) | 1.58 µM (active) | 3.16 µM (active) | > 6.31 µM (inactive) | 3.16 µM (active) | 3.16 µM (active) | 1 µM (active)
2 | COc1ccc(C2=NNc3cccc4c(OC)ccc2c34)cc1OC | 1.58 µM (active) | 0.794 µM (active) | > 5.01 µM (inactive) | 0.631 µM (active) | 3.16 µM (active) | 0.0316 µM (active) | 1 µM (active) | > 3.16 µM (inactive) | 0.316 µM (active) | 2.51 µM (active) | 0.316 µM (active) | 0.794 µM (active) | 0.2 µM (active) | 0.251 µM (active) | > 3.98 µM (inactive) | > 6.31 µM (inactive) | > 3.98 µM (inactive) | > 3.98 µM (inactive) | 0.0251 µM (active)
3 | CN1CCC(c2c(O)cc(O)c3c(=O)cc(-c4ccccc4Cl)oc23)C(O)C1 (configuration not stated) | 1.26 µM (active) | > 3.16 µM (inactive) | > 3.98 µM (inactive) | > 3.98 µM (inactive) | > 3.98 µM (inactive) | > 3.16 µM (inactive) | 0.794 µM (active) | > 2.51 µM (inactive) | > 2.51 µM (inactive) | > 2.51 µM (inactive) | 0.126 µM (active) | > 3.98 µM (inactive) | > 2.51 µM (inactive) | 1 µM (active) | > 5.01 µM (inactive) | > 3.16 µM (inactive) | > 3.98 µM (inactive) | > 3.98 µM (inactive) | 0.631 µM (active)
